Consider 4 molecules from patent US20160361443A1, “Ultrasound Molecular Imaging With Targeted Biocompatible Microbubbles” (University of Pittsburgh - Of the Commonwealth System of …, priority 2015, published 2016).

Values joined by “and” are separate entries in the source; they are usually repeats but may differ in a detail not shown here. Equal values may be shown once. “Also recorded” adds a separate entry of the source. Where no end group is shown, it is not given here. Side-chain parts run from the residue outwards. microbubble albumin shell = not defined here

One experiment deals with T1, E-selectin (Rattus norvegicus, UniProt P98105).
T1 construct: Immunofluorescent staining in all rats consistently confirmed microvascular E-selectin and ICAM-1 expression in postischemic myocardium; from tissue
T1 sequence (P98105 22-549): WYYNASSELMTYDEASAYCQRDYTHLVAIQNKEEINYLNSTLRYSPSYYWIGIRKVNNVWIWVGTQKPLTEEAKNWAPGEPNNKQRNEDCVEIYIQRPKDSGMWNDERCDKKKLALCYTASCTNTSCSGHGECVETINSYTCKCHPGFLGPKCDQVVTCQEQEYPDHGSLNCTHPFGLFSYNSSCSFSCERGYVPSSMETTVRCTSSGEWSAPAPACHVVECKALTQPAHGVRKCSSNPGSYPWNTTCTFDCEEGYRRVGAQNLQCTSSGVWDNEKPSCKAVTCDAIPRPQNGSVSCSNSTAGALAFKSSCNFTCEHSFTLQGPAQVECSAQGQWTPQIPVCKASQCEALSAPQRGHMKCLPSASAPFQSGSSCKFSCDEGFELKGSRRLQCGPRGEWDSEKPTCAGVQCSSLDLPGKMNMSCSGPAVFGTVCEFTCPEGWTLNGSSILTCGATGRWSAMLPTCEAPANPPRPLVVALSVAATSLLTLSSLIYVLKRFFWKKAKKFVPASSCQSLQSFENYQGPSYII
Briefly: Ultrasound molecular imaging in rat myocardial ischemia-reperfusion model. It counts as in vivo. As to conditions: for Contrast enhancement of postischemic myocardium (in words): 4 h after reperfusion, 3 min after MB injection. The method, then:
(§1) Targeted biodegradable polymer MB (3.4±1.3μm) were prepared bearing a 12-mer synthetic peptide on the surface with specific E-selectin affinity (MBESEL). See, FIG. 7. Control MB had scrambled peptide (MBCTL) or non-specific IgG (MBIgG). MB adhesion to cultured rat endothelial cells (EC) was assessed in a parallel plate flow system (n=3/condition). Intravital microscopy of rat cremaster microcirculation was performed after i.v. injection of each MB type under basal or activated conditions (scrotal TNF 5μg) (n=3 rats/condition). To determine if binding events could be imaged, 6 rats had 15 min coronary artery occlusion. After 4 hrs reflow, each rat received separate i.v. boluses of MBESEL, MBCTL, and MBIgG. Non-linear echo imaging was performed 3 and 3.5 min later. Videointensity (VI) differences between the 2 time points was attributed to target-specific signal.
An open chest rat model of myocardial ischemia-reperfusion (n=6) was performed where the left anterior descending coronary artery was occluded for 15 minutes then reperfused. See, FIG. 11. At 4 hrs of reflow, the rat received separate i.v. injections of MBE-SEL or MBCTL (2.5×10^7 MBs). Triggered ultrasound imaging (8 MHz, MI 0.6, Sequoia CPS, Siemens) was performed 3 min after injection, followed by 5 destruction frames (MI 1.9) and a second imaging frame (MI 0.6) at 3.5 minutes. The videointensity difference between the two imaging frames was attributed to microbubble adhesion. See, FIG. 12.
(§2) All protocols were approved by the Institutional Animal Care and Use Committee at the University of Pittsburgh. […] (Sprague Dawley, Harlan Laboratories, Indianapolis, Ind.) were anesthetized with intraperitoneal sodium pentobarbital (50 mg/kg) and maintained with 1.5 to 2.0% inhaled isoflurane. Body temperature was maintained at 37° C. with a heating pad. The internal jugular vein was cannulated with a 20-gauge catheter for MB injection.
A previously described rat model of acute myocardial ischemia and reperfusion was used for UMI of E-selectin overexpression as a marker of ischemic memory.^3 Anesthetized rats (n=6, 150-200 g) were intubated and mechanically ventilated. A lateral thoracotomy was performed, and the left anterior descending (LAD) coronary artery was occluded for 15 minutes and then reperfused. After 4 hours of reflow, each rat received separate intravenous injections of MBESEL, MBCTL, and MBIgG in random order (2.5×10^7 MBs in […] followed by a […]), and ultrasound imaging was performed as described below.
Thereafter, high mechanical index (MI) burst pulses were sent to ensure that all adhered and freely circulating MBs were destroyed prior to any subsequent injection. Typically, subsequent injections were given 5 minutes after MBs could no longer be detected in the left ventricular cavity on ultrasound imaging. The MB dosage was empirically chosen based on pilot studies assessing myocardial enhancement from various doses. At the end of the experiment, the LAD coronary artery was reoccluded, nontargeted myocardial contrast echocardiography (MCE) using plain lipid MBs was performed to delineate the risk area, and the rat was euthanized using pentobarbital overdose. Open-chest MCE in the short-axis view was performed using a contrast-specific imaging mode combining phase and amplitude modulation of the transmit signal (Cadence Contrast Pulse Sequencing, Sequoia 512, Siemens Ultrasound, Mountain View, Calif.) from a linear array transducer (15 L8) operating at 8 MHz. Probe position, dynamic range, gain settings, and focus were initially optimized and maintained constant. Ultrasound detection of bound MBs was performed using a previously described approach.^12,13 After 3 minutes to allow MB retention and washout of unbound MBs, end-systolic imaging was performed at an MI of 0.6, followed by an ultrasound burst pulse at MI of 1.9 to destroy the MBs and then end-systolic imaging 30 seconds later at MI 0.6. […]

The subject of experiment [1] is Rat heart microvascular ECs. Briefly: Parallel plate perfusion chamber, MB adhesion to cultured endothelial cells. As to conditions: for MB adhesion to inflamed (activated) ECs: IL-1b-activated ECs; for MB adhesion to inflamed (activated) ECs / MB adhesion to noninflamed (normal) ECs: 5×10^6 MB in 1 mL, wall shear rate 200 s-1; for MB adhesion to activated versus normal ECs (in words): in vitro flow chamber. Type of experiment: cell-based. The protocol:
as §1
Cultured rat heart microvessel endothelial cells were placed on glass cover slips. The cells were then stimulated with IL-1β (2 ng/ml) for 4 hrs and then perfused with 1 mL microbubbles (5×10^6 /mL)-MBE-SEL or MBCTL. These microbubbles were then subjected to a wall shear rate of 200 sec-1. See, FIG. 8. 20 random fields (n=3) were assessed. […] FIGS. 9A and 9B.
A parallel plate perfusion chamber was used to quantify MB adhesion to cultured endothelial cells (ECs).12 Rat heart microvascular ECs (VEC Technologies, Rensselaer, N.Y.) were grown to confluence on 25 mm 3 75 mm glass coverslips. Cells were incubated for 5 hours with 5 ng/mL interleukin-1b (Sigma-Aldrich, St. Louis, Mo.) to cause activation. Coverslips with normal or IL-1b-activated ECs ([…]; 3/condition) were mounted in the chamber and perfused with one of the three MB species (5×10^6 MB in 1 mL culture medium) at a wall shear rate of 200 s-1, followed by an additional 3 mL of plain culture medium. The chamber was then mounted on a microscope (Nikon TE200) and 20 random bright-field images (3 100) of the ECs were captured (ORCA285, Hamamatsu, Bridgewater, N.J.). The mean number of attached MBs/ECs was counted offline.

Experiment [2] has as its system rat cremaster muscle microcirculation. Briefly: Intravital microscopy of MB adhesion in vivo. The conditions noted are these: for MB adhesion to inflamed microcirculation: TNF-a 5 μg intrascrotal; for MB adhesion to normal or inflamed microcirculation (in words): basal or TNF-a activated. The protocol: as §1
An intravital microscopy of rat cremaster muscle microcirculation was performed after intravenous injection of 1×10^8 MBE-SEL or MBCTL (n=3 per condition). Non-inflamed: 4 hrs after intrascrotal injection of saline. Inflamed : 4 hrs after intrascrotal injection of TNF-α (5 μg). Real-time images were captured and microbubble adhesion was quantified in venules at 5 minutes after microbubble injection in 20 random fields. See, FIGS. 10A and 10B.
Microscopy of the rat cremaster muscle microcirculation was used for real-time visualization of MB adhesion in vivo. Sprague Dawley rats (100-120 g) received intrascrotal injection of either tumor necrosis factor a (n=9, 5 μg, Thermo Scientific, Waltham, Mass.) or 1 mL saline (n=9). Four hours later, the cremaster muscle was exteriorized and mounted on an inverted fluorescent microscope (Nikon TE200). Each rat received one intravenous injection (1×10^8 MB) of either MBESEL or control MBs (MBCTL or MBIgG) in […], followed by a […] ([…], 3 rats per MB type/inflammatory status combination, total 6 groups). Five minutes after injection, bright-field microscopic imaging of 20 random fields was performed to identify microvessels, and epi-illumination fluorescent imaging was performed to identify MBs, followed by pentobarbital overdose. Images were analyzed offline for MB adhesion per field of view, defined as MB immobility lasting≧30 seconds.
as §2

The target of experiment [3] is T2, human E-selectin on TNFα-activated HUVEC cells (human, UniProt P16581 22-610).
T2 construct: whole, on cells
T2 sequence (looked up): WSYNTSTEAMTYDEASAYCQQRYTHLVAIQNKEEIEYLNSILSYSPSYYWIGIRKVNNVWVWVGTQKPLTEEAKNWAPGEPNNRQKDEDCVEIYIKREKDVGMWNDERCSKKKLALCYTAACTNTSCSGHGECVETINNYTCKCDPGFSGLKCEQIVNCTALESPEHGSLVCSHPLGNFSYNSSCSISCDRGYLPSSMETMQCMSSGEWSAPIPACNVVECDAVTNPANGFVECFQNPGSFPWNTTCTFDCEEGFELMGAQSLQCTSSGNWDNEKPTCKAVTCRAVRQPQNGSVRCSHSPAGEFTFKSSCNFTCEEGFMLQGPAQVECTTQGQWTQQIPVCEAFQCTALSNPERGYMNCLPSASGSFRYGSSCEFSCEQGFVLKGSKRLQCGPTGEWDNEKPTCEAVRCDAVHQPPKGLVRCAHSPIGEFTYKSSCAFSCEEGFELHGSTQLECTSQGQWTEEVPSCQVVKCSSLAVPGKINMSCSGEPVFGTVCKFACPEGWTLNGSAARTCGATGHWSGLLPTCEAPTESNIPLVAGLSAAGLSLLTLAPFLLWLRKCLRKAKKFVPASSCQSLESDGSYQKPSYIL
Briefly: in vitro flow chamber, TNFα-activated HUVEC.

[4] abbreviates: 15 min LAD occlusion, 4 h reflow, 2.5×10^7 MBs i.v., 3 min after injection.
[5] abbreviates: 4 h, 1×10^8 MB i.v., 5 min after injection.

In the case of “MBESEL: Double-layer albumin/PDLLA microbubbles conjugated with E-selectin targeting peptide AF10166 via biotin-streptavidin bridging chemistry (DITWDQLWDLMK; also: biotinylated, site not given here, on microbubble via biotin-streptavidin)”, the “Background-subtracted videointensity, nonischemic bed” value with E-selectin (setting [4]) is 3.6±0.8 dB and 4±1 dB. The “Background-subtracted videointensity, postischemic (LAD) bed” value with E-selectin (setting [4]) is 11.6±2.7 dB and 12±3 dB. Also, the “Contrast enhancement of postischemic myocardium (in words)” value with E-selectin is given as “persistent contrast enhancement of the previously ischemic LAD coronary artery territory”; in the experiment with E-selectin (listed as MBEsel) it was “higher”. Moreover, the “Linear relationship, size of risk area vs size of region of persistent contrast enhancement (r)” value with E-selectin (y=0.98x-0.01) was 0.92. Moreover, in experiment [1], the “MB adhesion to inflamed (activated) ECs” value is 17.4±1.8 MB/EC and 17±2 MB/EC. The “MB adhesion to activated versus normal ECs (in words)” value in experiment [1] (listed as MBE-SEL) is recorded as “superior binding”; in experiment [1] (listed as MBEsel), “greater adhesion”. In addition, the “MB adhesion to noninflamed (normal) ECs” value in experiment [1] is 5.9±3.4 MB/EC and 5±3 MB/EC. Besides, the “MB adhesion to inflamed microcirculation” value in experiment [2] (setting [5]) turned out to be 4.8±1.2 MBs/field. Besides, in experiment [2] (activated conditions (scrotal TNF 5μg)), the “MB adhesion to inflamed microcirculation (Example II)” value stood at 96±23 MB/field. Besides, in experiment [2] (basal conditions), the “MB adhesion to non-inflamed microcirculation (Example II)” value stood at 34±8 MB/field. The “MB adhesion to normal or inflamed microcirculation (in words)” value in experiment [2] is reported as “adhesion to inflamed circulation (arrows) but not to control, noninflamed circulation”. The “MB adhesion to noninflamed microcirculation” value in experiment [2] (saline intrascrotal, 4 h, 1×10^8 MB i.v., 5 min after injection) came out at 1.7±0.4 MBs/field.
On to “MBCTL: Control microbubbles linked to the 12-mer randomized AF10166 sequence (H2NWKLDTLDMIWQD-COOH) via biotin-streptavidin (also: linked to microbubbles via biotin-streptavidin, site not given here) [reference compound]”, for which the “Background-subtracted videointensity, postischemic (LAD) bed” value with E-selectin (setting [4]) was 4.0±1.0 dB and 4±1 dB. The “Contrast enhancement of postischemic myocardium (in words)” value with E-selectin is “not seen”. Besides, in experiment [1], the “MB adhesion to inflamed (activated) ECs” value is 4.1±0.6 MB/EC and 5±2 MB/EC; the “MB adhesion to activated versus normal ECs (in words)” value is “no difference”; the “MB adhesion to noninflamed (normal) ECs” value is reported as 4±1 MB/EC. For the same molecule, the “MB adhesion to activated versus normal ECs (in words)” value in experiment [1] (listed as MBcontrl) is listed as “minimal adhesion”. Further, in experiment [2] (setting [5]), the “MB adhesion to inflamed microcirculation” value was determined as 1.5±0.3 MBs/field. Further, in experiment [2], the “MB adhesion to normal or inflamed microcirculation (in words)” value is recorded as “minimal attachment; also recorded: minimal adhesion”.

B1: MBESEL: polymer/albumin double-shell microbubble bearing biotinylated peptide AF10166 (E-selectin targeting peptide) via biotin-streptavidin bridging (peptide)
peptide: DITWDQLWDLMK
modifications: also: biotinylated, site not given here, held on microbubble shell by biotin-streptavidin bridging
notes: The peptide stood in the assays as many copies on a gas-filled microbubble (outer shell crosslinked human albumin, inner layer PDLLA); streptavidin and albumin shell are not; also called E-selectin targeted microbubble; MBEsel (biotin-streptavidin linker)
With B1, the binding result in experiment [3] is on record as “binds”.

B2: MB Esel(MAL): polymer/albumin double-shell microbubble bearing the E-selectin targeting peptide with one N-terminal cysteine, joined by a thioether bond … (peptide)
peptide: C([BM(PEG)3-microbubble albumin shell])DITWDQLWDLMK
modifications: reading uncertain; also: thioether-conjugated to polymer/albumin microbubble
notes: also called microbubble Esel(MAL); E-sel target MB (Mal)
B2: the binding result in experiment [3] is reported as “binds”.
